# Patent US20110165565A1, “COMPOSITIONS AND METHODS FOR POLYNUCLEOTIDE EXTRACTION AND METHYLATION DETECTION” (THE JOHNS HOPKINS UNIVERSITY, priority 2008, published 2011)
# Test system: p16 promoter methylation in colorectal cancer cell line RKO
# Assay: MS-qFRET quantification of p16 methylation reversal in RKO cells treated with DAC
# Type: cell-based
# From the text: The quantitative ability of MS-qFRET was further tested in cell lines and in patient samples as a function of response to a DNA demethylating agent. Reversal of methylation in the colorectal cancer cell line, RKO, was quantified at specific time points after treatment with 5-aza-2′-deoxycytidine (DAC). […] Since DNA replication is necessary for incorporation of DAC into DNA, reversal of methylation may be best observed only after inhibition of DNA methyltransferases due to cell cycling. The low amount of methylation reversal in the initial 24 to 36 hours could be attributed to the 22 hour doubling time for RKO cells.
# (ID and IA corresponding to donor and acceptor intensity).
compound,measurement,setting,value
"Nc1ncn([C@H]2C[C@H](O)[C@@H](CO)O2)c(=O)n1 [5-aza-2′-deoxycytidine (DAC), 5-aza-2′-deoxycytidine]","q-score, level of p16 methylation post-treatment",DNA from RKO cells treated with DAC for different time points (FIG. 3C),drop in the level of methylation
same,time of maximal reversal of methylation at p16,"RKO cells, 1 μM DAC, post-treatment",60 h
